# Assay results as given in patent publication US20250099466A1 (BRISTOL-MYERS SQUIBB COMPANY, priority 2021, published 2025).
# Columns and labels:
# [1] = system: subjects undergoing elective total knee replacement surgery; assay: Phase 2 study of milvexian versus enoxaparin after elective total knee replacement: venous thromboembolism events; type: in vivo, human; details: for Major VTE % / Major VTE n / Total VTE % / Total VTE RR vs. Enoxaparin / Total VTE n: mITT, Day 14; for Asymptomatic distal DVT % / Asymptomatic distal DVT n / Asymptomatic proximal DVT % / Asymptomatic proximal DVT n / Death n / Distal DVT % / Distal DVT n / Non-fatal PE n / Proximal DVT % / Proximal DVT n / Symptomatic distal DVT n / Symptomatic proximal DVT n / Non-fatal PE % / Symptomatic distal DVT %: through day 14; for incidence of segments with the most severe DVT severity score of 3: subjects with DVT on venography
# Text: [table] […] The study used a prospective, randomized, open-label, blinded endpoint (PROBE) design. […] The enoxaparin control arm likewise completed its pre-specified randomization of 300 subjects. […] FIG. 1 provides the study design, including number of subjects randomized into each study arm. […] An adaptive design was used to optimize patient recruitment for the dose-response evaluation. The number of dose regimens, the option to implement additional once daily dosing regimens, and the randomization ratio were based on the results of the periodic reviews and interim analysis. […] Randomization was performed postoperatively using a centralized interactive web-based response system and was stratified by geographic region of the study centers. […] Enoxaparin was given subcutaneously at a dose of 40 mg once daily and was started either the evening before or 12 to 24 hours after surgery. […] The primary efficacy outcome was venous thromboembolism, defined as the composite of asymptomatic deep-vein thrombosis (detected by mandatory unilateral venography performed 10 to 14 days after surgery), confirmed symptomatic venous thromboembolism (symptomatic deep-vein thrombosis of the leg or nonfatal pulmonary embolism), or death. […] Factor XI antisense oligonucleotide for prevention of venous thrombosis. N Engl J Med 2015; 372:232-40; Fuji et al., A dose-ranging study evaluating the oral factor Xa inhibitor edoxaban for the prevention of venous thromboembolism in patients undergoing total knee arthroplasty. J Thromb Haemost 2010; 8:2458-68). The major secondary efficacy outcomes were: (a) proximal deep-vein thrombosis (symptomatic or asymptomatic), (b) distal deep-vein thrombosis (symptomatic or asymptomatic) (c) nonfatal pulmonary embolism, and (d) death. An exploratory efficacy outcome was the extent of venous thrombosis on venography, which was assessed by the adjudication committee using predefined categories. […] Statistics in Medicine 2014; 33:1646-61). […] Venograms, assessed by independent blinded adjucators, were used to identify, and to assign DVT severity scores to, subjects with DVT. […] For each evaluated segment, a severity score was assigned depending on the presence and, if present, extension of the clot in the segment of the vein. Severity scores, on a scale of 0-3, were assigned as follows: 0=no clot; 1=less than ⅓; 2=greater than or equal to ⅓ but less than ⅔; and 3=greater than ⅔ the length of the vein segment.
# aPTT, TT, and PT = assay: Ex vivo aPTT, TT and PT in ECAT rabbits; parameters: species or system rabbit
# Method: Integrated blood flow, thrombus weight, aPTT (activated partial thromboplastin time), TT (thrombin time), and PT (prothrombin time) were also measured.
# [2] = milvexian all regimens combined
# [3] = milvexian combined BID regimens
smiles,measurement,setting,value
"C[C@@H]1CCC[C@H](n2cnc(-c3cc(Cl)ccc3-n3cc(Cl)nn3)cc2=O)c2cc(ccn2)-c2c(cnn2C(F)F)NC1=O [milvexian, (5R,9S)-9-(4-(5-chloro-2-(4-chloro-1H-1,2,3-triazol-1-yl)phenyl)-6-oxopyrimidin-1(6H)-yl)-21-(difluoromethyl)-5-methyl-21H-3-aza-1(4,2)-pyridina-2(5,4)-pyrazolacyclononaphan-4-one]",Major VTE %,[1]; milvexian 25 mg BID,0.8%
same,Major VTE n,[1]; milvexian 25 mg BID,1 n
same,Total VTE %,[1]; milvexian 25 mg BID,21.0%
same,Total VTE RR vs. Enoxaparin,[1]; milvexian 25 mg BID,0.97
same,Total VTE n,[1]; milvexian 25 mg BID,27 n
same,Major VTE %,"[1]; milvexian 25 mg BID, listed as Milvexian",(0.8%)
same,Asymptomatic distal DVT %,[1]; milvexian 25 mg BID,20.2%
same,Asymptomatic distal DVT n,[1]; milvexian 25 mg BID,26 n
same,Asymptomatic proximal DVT %,[1]; milvexian 25 mg BID,0.8%
same,Asymptomatic proximal DVT n,[1]; milvexian 25 mg BID,1 n
same,Death n,[1]; milvexian 25 mg BID,0 n
same,Distal DVT %,[1]; milvexian 25 mg BID,20.2%
same,Distal DVT n,[1]; milvexian 25 mg BID,26 n
same,Non-fatal PE n,[1]; milvexian 25 mg BID,0 n
same,Proximal DVT %,[1]; milvexian 25 mg BID,0.8%
same,Proximal DVT n,[1]; milvexian 25 mg BID,1 n
same,Symptomatic distal DVT n,[1]; milvexian 25 mg BID,0 n
same,Symptomatic proximal DVT n,[1]; milvexian 25 mg BID,0 n
same,Major VTE n,[1]; milvexian 25 mg once daily,0 n
same,Total VTE %,[1]; milvexian 25 mg once daily,(25.0%)
same,Total VTE RR vs. Enoxaparin,[1]; milvexian 25 mg once daily,1.00
same,Total VTE n,[1]; milvexian 25 mg once daily,7 n
same,Major VTE %,[1]; milvexian 50 mg BID,0.8%
same,Major VTE n,[1]; milvexian 50 mg BID,1 n
same,Total VTE %,[1]; milvexian 50 mg BID,11.3%
same,Total VTE RR vs. Enoxaparin,[1]; milvexian 50 mg BID,0.53
same,Total VTE n,[1]; milvexian 50 mg BID,14 n
same,Major VTE %,"[1]; milvexian 50 mg BID, listed as Milvexian",(0.8%)
same,incidence of segments with the most severe DVT severity score of 3,[1]; milvexian 50 mg BID,0%
same,Asymptomatic distal DVT %,[1]; milvexian 50 mg BID,10.5%
same,Asymptomatic distal DVT n,[1]; milvexian 50 mg BID,13 n
same,Asymptomatic proximal DVT n,[1]; milvexian 50 mg BID,0 n
same,Death n,[1]; milvexian 50 mg BID,0 n
same,Distal DVT %,[1]; milvexian 50 mg BID,10.5%
same,Distal DVT n,[1]; milvexian 50 mg BID,13 n
same,Non-fatal PE %,[1]; milvexian 50 mg BID,0.8%
same,Non-fatal PE n,[1]; milvexian 50 mg BID,1 n
same,Proximal DVT n,[1]; milvexian 50 mg BID,0 n
same,Symptomatic distal DVT n,[1]; milvexian 50 mg BID,0 n
same,Symptomatic proximal DVT n,[1]; milvexian 50 mg BID,0 n
same,Major VTE %,[1]; milvexian 50 mg once daily,1.6%
same,Major VTE n,[1]; milvexian 50 mg once daily,2 n
same,Total VTE %,[1]; milvexian 50 mg once daily,(23.6%)
same,Total VTE RR vs. Enoxaparin,[1]; milvexian 50 mg once daily,1.15
same,Total VTE n,[1]; milvexian 50 mg once daily,30 n
same,Major VTE %,"[1]; milvexian 50 mg once daily, listed as Milvexian",(1.6%)
same,Major VTE %,[1]; milvexian 100 mg BID,1.5%
same,Major VTE n,[1]; milvexian 100 mg BID,2 n
same,Total VTE %,[1]; milvexian 100 mg BID,9.0%
same,Total VTE RR vs. Enoxaparin,[1]; milvexian 100 mg BID,0.42
same,Total VTE n,[1]; milvexian 100 mg BID,12 n
same,Major VTE %,"[1]; milvexian 100 mg BID, listed as Milvexian",(1.5%)
same,incidence of segments with the most severe DVT severity score of 3,[1]; milvexian 100 mg BID,1.52%
same,Asymptomatic distal DVT %,[1]; milvexian 100 mg BID,7.5%
same,Asymptomatic distal DVT n,[1]; milvexian 100 mg BID,10 n
same,Asymptomatic proximal DVT %,[1]; milvexian 100 mg BID,0.7%
same,Asymptomatic proximal DVT n,[1]; milvexian 100 mg BID,1 n
same,Death n,[1]; milvexian 100 mg BID,0 n
same,Distal DVT %,[1]; milvexian 100 mg BID,7.5%
same,Distal DVT n,[1]; milvexian 100 mg BID,10 n
same,Non-fatal PE %,[1]; milvexian 100 mg BID,0.7%
same,Non-fatal PE n,[1]; milvexian 100 mg BID,1 n
same,Proximal DVT %,[1]; milvexian 100 mg BID,0.7%
same,Proximal DVT n,[1]; milvexian 100 mg BID,1 n
same,Symptomatic distal DVT %,[1]; milvexian 100 mg BID,0.7%
same,Symptomatic distal DVT n,[1]; milvexian 100 mg BID,1 n
same,Symptomatic proximal DVT n,[1]; milvexian 100 mg BID,0 n
same,Major VTE n,[1]; milvexian 200 mg BID,0 n
same,Total VTE %,[1]; milvexian 200 mg BID,7.6%
same,Total VTE RR vs. Enoxaparin,[1]; milvexian 200 mg BID,0.37
same,Total VTE n,[1]; milvexian 200 mg BID,10 n
same,incidence of segments with the most severe DVT severity score of 3,[1]; milvexian 200 mg BID,2.73%
same,Asymptomatic distal DVT %,[1]; milvexian 200 mg BID,7.6%
same,Asymptomatic distal DVT n,[1]; milvexian 200 mg BID,10 n
same,Asymptomatic proximal DVT n,[1]; milvexian 200 mg BID,0 n
same,Death n,[1]; milvexian 200 mg BID,0 n
same,Distal DVT %,[1]; milvexian 200 mg BID,7.6%
same,Distal DVT n,[1]; milvexian 200 mg BID,10 n
same,Non-fatal PE n,[1]; milvexian 200 mg BID,0 n
same,Proximal DVT n,[1]; milvexian 200 mg BID,0 n
same,Symptomatic distal DVT n,[1]; milvexian 200 mg BID,0 n
same,Symptomatic proximal DVT n,[1]; milvexian 200 mg BID,0 n
same,Major VTE n,[1]; milvexian 200 mg once daily,0 n
same,Total VTE %,[1]; milvexian 200 mg once daily,(6.5%)
same,Total VTE RR vs. Enoxaparin,[1]; milvexian 200 mg once daily,0.30
same,Total VTE n,[1]; milvexian 200 mg once daily,8 n
same,incidence of segments with the most severe DVT severity score of 3,[1]; milvexian 200 mg once daily,0%
same,Total VTE %,[1]; [2],13.6%
same,Total VTE n,[1]; [2],108 n
same,reduction of total VTE compared to enoxaparin,[1]; milvexian at total daily doses of ≥200 mg,> 50%
same,Total VTE %,[1]; [3],12.2%
same,Total VTE n,[1]; [3],63 n
same,Asymptomatic distal DVT %,[1]; [3],11.4%
same,Asymptomatic distal DVT n,[1]; [3],59 n
same,Asymptomatic proximal DVT %,[1]; [3],0.4%
same,Asymptomatic proximal DVT n,[1]; [3],2 n
same,Death n,[1]; [3],0 n
same,Distal DVT %,[1]; [3],11.4%
same,Distal DVT n,[1]; [3],59 n
same,Non-fatal PE %,[1]; [3],0.4%
same,Non-fatal PE n,[1]; [3],2 n
same,Proximal DVT %,[1]; [3],0.4%
same,Proximal DVT n,[1]; [3],2 n
same,Symptomatic distal DVT %,[1]; [3],0.2%
same,Symptomatic distal DVT n,[1]; [3],1 n
same,Symptomatic proximal DVT n,[1]; [3],0 n
same,ex vivo PT,"aPTT, TT, and PT; prevention ECAT rabbits",did not alter TT and PT significantly
same,ex vivo TT,"aPTT, TT, and PT; prevention ECAT rabbits",did not alter TT and PT significantly
same,ex vivo aPTT,"aPTT, TT, and PT; prevention ECAT rabbits",elevated aPTT significantly at the highest 2 doses
same,prolongation of aPTT needed to achieve 50% thrombus weight reduction,"aPTT, TT, and PT; rabbit ECAT",1.6 fold
